Laboratory results taken from US20030158254A1, “Engineering absorption of therapeutic compounds via colonic transporters” (XenoPort, Inc., priority 2002, published 2003).

Experiments:
[1] = Uptake of compounds through the rat colon (intracolonic dosing, gabapentin in blood by LC/MS/MS); assay type: in vivo; conditions: dose equivalent to 25 mg gabapentin per kg, FIG. 3A
Experimental: Rats were obtained commercially and were pre-cannulated in the both the ascending colon and the jugular vein. Animals were conscious at the time of the experiment. All animals were fasted overnight and until 4 hours post-dosing. Prodrugs were administered as a solution (in water or polyethylene glycol 400) directly into the colon via the cannula at a dose equivalent to 25 mg of gabapentin per kg. Blood samples (0.5 mL) were obtained from the jugular cannula at intervals over 8 hours and were quenched immediately by addition of acetonitrile/methanol to prevent further conversion of the prodrug. Blood samples were analyzed as described in the attached sample analysis summary.
1. In blank 1.5 mL eppendorf tubes, add 300 μL of a 50/50 mixture of acetonitrile/methanol and 20 μL of the p-chlorophenylalanine as internal standard.
2. Rat blood was collected at different time points and immediately 100 μL of blood was added into the eppendorf tube and vortex to mix.
3. 10 μL of the gabapentin standard solution (0.04, 0.2, 1, 5, 25, 100 μg/mL) was added to 90 μL of blank rat blood to make up a final calibration standard (0.004, 0.02, 0.1, 0.5, 2.5, 10 μg/mL). […]
API 2000 LC/MS/MS mass spectrometer equipped with Shidmadzu 10ADVp binary pumps and an autosampler (CTC Analytics AG, High Throughput Screening-PAL) were used in the analysis. […] The peaks were integrated by the Analyst 1.1 quantitation software.

[2] = target: T1, hSMVT (Homo sapiens, UniProt Q9Y289); test: Transport currents in SMVT-expressing Xenopus oocytes, normalized to biotin; assay type: cell-based; conditions: response relative to biotin, transporter-expressing oocytes, test compound 0.5 mM
T1 sequence (Q9Y289 1-635): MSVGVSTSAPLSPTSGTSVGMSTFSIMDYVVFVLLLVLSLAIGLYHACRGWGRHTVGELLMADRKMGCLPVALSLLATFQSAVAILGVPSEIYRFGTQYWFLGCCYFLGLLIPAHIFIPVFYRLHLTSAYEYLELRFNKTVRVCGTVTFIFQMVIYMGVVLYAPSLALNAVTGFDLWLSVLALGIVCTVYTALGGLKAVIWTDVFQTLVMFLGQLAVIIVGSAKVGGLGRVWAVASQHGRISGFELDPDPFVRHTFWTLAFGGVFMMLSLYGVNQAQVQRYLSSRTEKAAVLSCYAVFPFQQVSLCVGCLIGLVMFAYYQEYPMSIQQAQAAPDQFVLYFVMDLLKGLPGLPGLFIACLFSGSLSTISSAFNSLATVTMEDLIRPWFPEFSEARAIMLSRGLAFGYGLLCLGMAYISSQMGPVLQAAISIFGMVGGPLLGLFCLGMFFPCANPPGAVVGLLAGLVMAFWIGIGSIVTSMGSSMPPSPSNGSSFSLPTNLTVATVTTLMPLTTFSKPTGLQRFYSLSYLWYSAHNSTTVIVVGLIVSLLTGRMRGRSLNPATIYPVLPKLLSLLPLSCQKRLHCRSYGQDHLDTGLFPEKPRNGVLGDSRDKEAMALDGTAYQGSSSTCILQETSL
From the text: The complete open reading frame of human ATBO+(SLC6A14) and SMVT (SLC5A6) were amplified from human cDNA prepared from liver or intestine mRNA. Gene-specific oligonucleotide primers were designed against Genbank sequences (AF151978 and NM-021095). Amplified PCR products were cloned into a modified version of the mammalian expression vector pcDNA3 (termed pMO) that was engineered to contain the 5′ and 3′ untranslated regions from the Xenopus beta-globin gene. All clones were completely sequenced and tested for function by transient transfection in HEK293 cells.
cRNA for oocyte expression was prepared by linearization of plasmid cDNA and in vitro transcription using T7 polymerase (Epicentre Ampliscribe kit). Xenopus oocytes were prepared and maintained as previously described (Collins et al., PNAS […]:5456-5460 (1997)) and injected with 10-30 ng RNA. Transport currents were measured 2-6 days later using two-electrode voltage-clamp (Axon Instruments). All experiments were performed using a modified oocyte Ringers solution (90 mM NaCl, 2 mM KCl, 1.8 mM CaCl2, 1 mM MgCl2, and 10 mM Na HEPES, pH 7.4; in Na^+-free solutions 90 mM choline chloride was substituted for NaCl). The membrane potential of oocytes was held at −60 mV and current traces acquired using PowerLab software (AD Instruments). Full 7-concentration dose-responses were performed for each compound. […] Half-maximal concentrations were calculated using non-linear regression curve fitting software (Prism) with the Hill co-efficient fixed to 1. To ensure that currents were specific for the over-expressed transporter, all compounds were tested against uninjected oocytes. Since both ATBO+ and SMVT require Na^+ for transport, we confirmed transport specificity by application of the compounds in a Na^+-free solution.
In vitro transport data for selected compounds on hSMVT-expressing cells

[3] = system: HEK cells; test: pH assay of uptake by transporters naturally expressed in HEK cells, with and without phloretin; assay type: cell-based, human; conditions: phloretin 0.5 mM, FIG. 1
Experimental: Although HEK's are a kidney derived cell line, they express some of the same transporters as the colon and can be used as a preliminary screen to identify substrates of colon-expressed transporters.
Cells were seeded at 100,000/well in 96 black, clear bottom plate overnight and washed twice in 100 μL buffer I at room temperature.
Cells were loaded with […] 2,7-bis-(2-carboxyethyl)-5-carboxyfluoroscein acetoxymethyl ester (BCECF AM) (resuspended in 50:50 dimethylsulfoxide:Pluronic™ surfactant mixture) in buffer 1 for 15 min. at 37° C. at 50 μL/well.
The rest of the protocol was performed at room temperature.
Cells were washed twice in buffer 2 at 50 μL/well. A first reading was taken in FLEX station in the buffer 2 at two sets of fluorescence excitation/emission wavelengths, 440/535 and 490/535, with 50 μL buffer/well. […] A second reading was taken in FLEX station at above settings (T0). […] A third reading was taken in FLEX station at above settings (T1). […]
For each well, values for A, B and C were calculated using the T0 and T1 data and the following equations:
A=measured fluorescence at excitation/emission wavelengths 440/535−background
B=measured fluorescence at excitation/emission wavelengths 490/535−background
The C values for the T0 and T1 data were used to determine the percent decrease in fluorescence at T1 relative to T0. […]

[4] = target: T1, hSMVT; test: Radiolabeled competition assay in SMVT-expressing CHO cells; assay type: cell-based
From the text: The complete open reading frame of human ATBO+(SLC6A14) and SMVT (SLC5A6) were amplified from human cDNA prepared from liver or intestine mRNA. […] Amplified PCR products were cloned into a modified version of the mammalian expression vector pcDNA3 (termed pMO) that was engineered to contain the 5′ and 3′ untranslated regions from the Xenopus beta-globin gene. All clones were completely sequenced and tested for function by transient transfection in HEK293 cells.
For cell uptake studies, stable CHOK1 clones were seeded into polylysine coated 96-well microtitre plates and grown for 2-3 days. Cells were incubated with experimental solutions (combinations of radiolabeled and unlabeled compounds) for 30 minutes at room temperature, washed four times, and lysed in scintillation solution. Accumulation of radiolabeled molecules was measured in a microtitre scintillation plate reader (Perkin Elmer). Inhibition constants (IC50s) were calculated using curve-fitting software (Prism).

Compound	Colonic uptake determined from plasma concentration of gabapentin [1]	% Max. (Biotin) [2] [%]	Uptake by HEK cells in presence and absence of transporter inhibitor phloretin [3]	IC50 [4] [µM]
CC(C)(C)C(=O)OCOC(=O)NCC1(CC(=O)O)CCCCC1 [Compound I, gabapentin pivaloxymethyl carbamate]	taken up best	21	phloretin substantially inhibits uptake of Compound I	
NCC1(CC(=O)O)CCCCC1 [Gabapentin, reference compound]	not taken up significantly	0		
CC(=O)OC(C)OC(=O)NCC1(CC(=O)O)CCCCC1 (stereo not drawn) [Compound IV, gabapentin acetoxyethyl carbamate]				80
